Experimental data reported in PMC10734772 (Turkish Journal of Chemistry, 2021).

Columns and labels:
Format in all cases: cell-based
[1] = MTT assay, Hek293T non-leukemic control cells; settings: human, read-out: Viability rate
Method: (§1) K562, Jurkat, Molt-4, and Nalm-6 cell lines were cultured in RPMI-1640 medium (ECM2001, Euroclone), Reh cell line was cultured in DMEM medium (LM-D1111-Biosera) Hek293T cell line was cultured in IMDM medium (AL070A - HiMedia) supplemented with 10% heat-inactivated fetal bovine serum (F7524-Merck & Co., USA,) penicillin and streptomycin (P4333-Sigma Aldrich). K562, Jurkat and Molt-4 cell lines were seeded as 4x10^5/ml, Reh and Nalm-6 cell lines were seeded 5x10^5/ml, Hek293T cell line was seed as 2x10^5/ml. All cells were incubated at 5% CO2 and 37 °C. All cell lines were kindly provided by Dr. M. Sayitoglu and Dr. Ö. Hatirnaz-Ng from Acibadem University.
(§2) MTT assay is a 3-day test. On the first day, cell count was performed in Bio Rad TC-20 device with the help of trypan blue, each cell line was prepared by diluting to the specified concentrations and seeded in a 96-well plate as 100μL to each well and incubated for 1 day.
(§3) Each compound was solved in DMSO, their stock solutions (33.3, 10, 5, 1 mM, and 300 μM) were prepared by diluting with the same solvent and they were stored under −20°C when they were not used.
(§4) On the second day, stock solutions were subsequently diluted to various concentrations (0.3–200 μM) with related medium prior to experiments. Specified concentrations of the compounds were seeded in a 96-well plate as 100μL to each well and incubated for 24 h.
(§5) After incubation (on the third day), to precipitate leukemia cells, the cell plate was centrifuged at 1500 rpm for 5 min. Then, 100 μL of supernatant was removed from each well carefully and 10 μl of MTT solution (5 mg/mL) was added to each well and incubated at 37 °C for 4 h. The 50 μl of supernatant was discarded from each well and 100 μl of DMSO was added to dissolve the formazan. Plates were shaken for 45 min to dissolve the dye. Then the optical density of each well was measured by using Thermo VarioSkan Flush Multimode Reader Quantum ST5-1100 at 570 nm wavelength.
(§6) Subsequently, viability rate of the cells at each concentration, as percentage, was determined by following formula (1):
(§7) Viability rate (%)=100-[(OD(control)-OD(sample))/OD(control)×100].OD=Optical Density
(§8) The IC50 values were calculated by using GraphPad Prism. All the data presented as the mean of 6 replicates. Results were analyzed and illustrated with Graph Pad Prism (version 5; GraphPad Software, San Diego, CA, USA). Statistical analysis was performed using dose-response inhibition, log(inhibitor) vs response-variable slope, least squares (ordinary) fit.
(§9) To evaluate in-vitro anti-cancer activity of the newly synthesized compounds, they were tested by using the MTT assay in the BCR-ABL positive leukemic cell line (K562), BCR-ABL negative leukemic cell lines (Nalm-6, Molt-4, Reh and Jurkat), and non-leukemic human embryonic kidney tissue (Hek293T) cell line. […] The viability rate of each concentration was calculated by the formula stated in material and methods, the viability rate results for each cell were presented in Table S2 and Figure S44.

[2] = tested on: Molt-4; experiment: MTT assay, Molt-4 cells; settings: Homo sapiens, MOLT-4, 24 h, read-out: Viability rate
Method: as §1, §2, §3, §4, §5, §6, §7, §8, §9

[3] = tested on: K562, Nalm-6, Molt-4, Reh, Jurkat, Hek293T cell lines; experiment: MTT assay, overall judgement over all cell lines; settings: overall judgement in words; for 6 and 10: on all cell lines, except Reh
Method: as §9

[4] = tested on: Nalm-6; experiment: MTT assay, Nalm-6 cells; settings: Homo sapiens, 24 h
[5] = tested on: Jurkat; experiment: MTT assay, Jurkat cells; settings: Homo sapiens, 24 h, read-out: Viability rate
Method: as §1, §2, §3, §4, §5, §6, §7, §8, §9

[6] = tested on: K562; experiment: MTT assay, K562 cells; settings: Homo sapiens, 24 h, MTT, read-out: Viability rate
Method: After incubation (on the third day), to precipitate leukemia cells, the cell plate was centrifuged at 1500 rpm for 5 min. […] The 50 μl of supernatant was discarded from each well and 100 μl of DMSO was added to dissolve the formazan. Plates were shaken for 45 min to dissolve the dye. Then the optical density of each well was measured by using Thermo VarioSkan Flush Multimode Reader Quantum ST5-1100 at 570 nm wavelength.
The IC50 values were calculated by using GraphPad Prism. All the data presented as the mean of 6 replicates. […] Statistical analysis was performed using dose-response inhibition, log(inhibitor) vs response-variable slope, least squares (ordinary) fit.

[7] = tested on: Reh; experiment: MTT assay, Reh cells; settings: Homo sapiens, 24 h, read-out: Viability rate
Method: as §1, §2, §3, §4, §5, §6, §7, §8, §9

For `COc1ccc(CN2CCN(Cc3ccc(C(=O)Nc4ccc(C)c(Nc5nccc(C)n5)c4)cc3)CC2)c(OC)c1OC` [Compound 6], the viability at 24 h, 0.3 µM ([1]; Hek293T cells (non-leukemic control cell line), 0.3 μM) was 91.1 ± 0.15%, the viability at 24 h, 0.5 µM ([1]; Hek293T cells (non-leukemic control cell line), 0.5 μM) was 90.8 ± 0.14% and the viability at 24 h, 3 µM ([1]; Hek293T cells (non-leukemic control cell line), 3 μM) was 81.4 ± 0.09%. It also gave a viability at 24 h, 5 µM ([1]; Hek293T cells (non-leukemic control cell line), 5 μM) of 78.5 ± 0.14%, a viability at 24 h, 10 µM ([1]; Hek293T cells (non-leukemic control cell line), 10 μM) of 78.2 ± 0.02% and a viability at 24 h, 15 µM ([1]; Hek293T cells (non-leukemic control cell line), 15 μM) of 70.6 ± 0.04%. The viability at 24 h, 20 µM ([1]; Hek293T cells (non-leukemic control cell line), 20 μM) was 65.5 ± 0.1%, the viability at 24 h, 30 µM ([1]; Hek293T cells (non-leukemic control cell line), 30 μM) was 57.4 ± 0.09% and the viability at 24 h, 50 µM ([1]; Hek293T cells (non-leukemic control cell line), 50 μM) was 50.7 ± 0.05%. The viability at 24 h, 70 µM ([1]; Hek293T cells (non-leukemic control cell line), 70 μM) was 48.8 ± 0.02%, the viability at 24 h, 100 µM ([1]; Hek293T cells (non-leukemic control cell line), 100 μM) was 47.9 ± 0.01% and the viability at 24 h, 150 µM ([1]; Hek293T cells (non-leukemic control cell line), 150 μM) was 47.7 ± 0.02%. For the same compound, the viability at 24 h, 200 µM ([1]; Hek293T cells (non-leukemic control cell line), 200 μM) was 47 ± 0.02%, the viability at 24 h, 1 µM ([1]; Hek293T cells, 1 μM) was 87 ± 0.15% and the viability at 0.3 µM ([2]; Molt-4, 0.3 μM) was 84.4 ± 0.14%. It also gave a viability at 0.5 µM ([2]; Molt-4, 0.5 μM) of 79.7 ± 0.1%, a viability at 1 µM ([2]; Molt-4, 1 μM) of 78.7 ± 0.09% and a viability at 3 µM ([2]; Molt-4, 3 μM) of 79.7 ± 0.18%. It also gave a viability at 5 µM ([2]; Molt-4, 5 μM) of 80.5 ± 0.16%, a viability at 10 µM ([2]; Molt-4, 10 μM) of 81.8 ± 0.07% and a viability at 15 µM ([2]; Molt-4, 15 μM) of 79.2 ± 0.15%. It also gave a viability at 20 µM ([2]; Molt-4, 20 μM) of 76 ± 0.05%, a viability at 30 µM ([2]; Molt-4, 30 μM) of 75.4 ± 0.08% and a viability at 50 µM ([2]; Molt-4, 50 μM) of 73.5 ± 0.04%. It also gave a viability at 70 µM ([2]; Molt-4, 70 μM) of 68.9 ± 0.06%, a viability at 100 µM ([2]; Molt-4, 100 μM) of 61.7 ± 0.02% and a viability at 150 µM ([2]; Molt-4, 150 μM) of 59.9 ± 0.05%. The viability at 200 µM ([2]; Molt-4, 200 μM) was 55.2 ± 0.04%, the “anticancer activity according to MTT assay results” value [3] was “high anticancer activity” and the viability at 0.3 µM ([4]; Nalm-6, 0.3 μM, MTT, read-out: Viability rate) was 100.7 ± 0.01%. The viability at 0.5 µM ([4]; Nalm-6, 0.5 μM, MTT, read-out: Viability rate) was 100.5 ± 0.02%, the viability at 1 µM ([4]; Nalm-6, 1 μM, MTT, read-out: Viability rate) was 100.1 ± 0.03% and the viability at 3 µM ([4]; Nalm-6, 3 μM, MTT, read-out: Viability rate) was 100 ± 0.04%. For the same compound, the viability at 5 µM ([4]; Nalm-6, 5 μM, MTT, read-out: Viability rate) was 98.8 ± 0.04%, the viability at 10 µM ([4]; Nalm-6, 10 μM, MTT, read-out: Viability rate) was 98 ± 0.02% and the viability at 15 µM ([4]; Nalm-6, 15 μM, MTT, read-out: Viability rate) was 95.6 ± 0.02%. The viability at 20 µM ([4]; Nalm-6, 20 μM, MTT, read-out: Viability rate) was 82.6 ± 0.02%, the viability at 30 µM ([4]; Nalm-6, 30 μM, MTT, read-out: Viability rate) was 71.6 ± 0.01% and the viability at 50 µM ([4]; Nalm-6, 50 μM, MTT, read-out: Viability rate) was 55.2 ± 0.01%. For the same compound, the viability at 70 µM ([4]; Nalm-6, 70 μM, MTT, read-out: Viability rate) was 43.5 ± 0.01%, the viability at 100 µM ([4]; Nalm-6, 100 μM, MTT, read-out: Viability rate) was 42.6 ± 0.01% and the viability at 150 µM ([4]; Nalm-6, 150 μM, MTT, read-out: Viability rate) was 42.9 ± 0.01%. The viability at 200 µM ([4]; Nalm-6, 200 μM, MTT, read-out: Viability rate) was 42.8%, the IC50 ([4]; Nalm-6, MTT, range 0.3–200 μM, six replicates) was 48 µM and the viability at 3 µM ([5]; 3 μM) was 79.1 ± 0.02%. It also gave a viability at 5 µM ([5]; 5 μM) of 69.8 ± 0.02%, a viability at 10 µM ([5]; 10 μM) of 69.7 ± 0.05% and a viability at 15 µM ([5]; 15 μM) of 69.2 ± 0.02%. It also gave a viability at 20 µM ([5]; 20 μM) of 68.9 ± 0.01%, a viability at 30 µM ([5]; 30 μM) of 68.8 ± 0.03% and a viability at 50 µM ([5]; 50 μM) of 59.1 ± 0.03%. It also gave a viability at 70 µM ([5]; 70 μM) of 47.8 ± 0.01%, a viability at 100 µM ([5]; 100 μM) of 44 ± 0.01% and a viability at 150 µM ([5]; 150 μM) of 36.4 ± 0.01%. For the same compound, the viability at 200 µM ([5]; 200 μM) was 35.3 ± 0.01%, the viability at 0.3 µM ([6]; K562, 0.3 μM) was 92.5 ± 0.11% and the viability at 0.5 µM ([6]; K562, 0.5 μM) was 91.8 ± 0.06%. For the same compound, the viability at 1 µM ([6]; K562, 1 μM) was 91.8 ± 0.04%, the viability at 3 µM ([6]; K562, 3 μM) was 88.7 ± 0.05% and the viability at 5 µM ([6]; K562, 5 μM) was 87.6 ± 0.05%. For the same compound, the viability at 10 µM ([6]; K562, 10 μM) was 87.3 ± 0.11%, the viability at 15 µM ([6]; K562, 15 μM) was 87.3 ± 0.1% and the viability at 20 µM ([6]; K562, 20 μM) was 86.5 ± 0.07%. For the same compound, the viability at 30 µM ([6]; K562, 30 μM) was 85.5 ± 0.1%, the viability at 50 µM ([6]; K562, 50 μM) was 78.1 ± 0.1% and the viability at 70 µM ([6]; K562, 70 μM) was 68.5 ± 0.05%. The viability at 100 µM ([6]; K562, 100 μM) was 67.5 ± 0.03%, the viability at 150 µM ([6]; K562, 150 μM) was 67.3 ± 0.02% and the viability at 200 µM ([6]; K562, 200 μM) was 67.2 ± 0.03%. It also gave a viability at 0.3 µM ([7]; 0.3 μM) of 109.5 ± 0.02%, a viability at 0.5 µM ([7]; 0.5 μM) of 105.2 ± 0.02% and a viability at 1 µM ([7]; 1 μM) of 106.8 ± 0.01%. It also gave a viability at 3 µM ([7]; 3 μM) of 107.9 ± 0.02%, a viability at 5 µM ([7]; 5 μM) of 108.2 ± 0.01% and a viability at 10 µM ([7]; 10 μM) of 106.9 ± 0.02%. It also gave a viability at 15 µM ([7]; 15 μM) of 106.5 ± 0.02%, a viability at 20 µM ([7]; 20 μM) of 97.7 ± 0.02% and a viability at 30 µM ([7]; 30 μM) of 88.6 ± 0.03%. It also gave a viability at 50 µM ([7]; 50 μM) of 85.6 ± 0.02%, a viability at 70 µM ([7]; 70 μM) of 65.3 ± 0.02% and a viability at 100 µM ([7]; 100 μM) of 62.2 ± 0.01%. The viability at 150 µM ([7]; 150 μM) was 61.3 ± 0.01% and the viability at 200 µM ([7]; 200 μM) was 61.1 ± 0.02%.
